Legend:
[1] = tested on: Human alphaherpesvirus 1; assay: Antiviral activity against acyclovir and cidofovir-resistant HSV-1 L2 infected in African green monkey Vero E6 cells assessed as inhibition of viral reproduction measured after 48 hrs post infection by gentian violet staining based plaque reduction assay; assay type: functional; details: Vero C1008
[2] = tested on: Human alphaherpesvirus 1; assay: Antiviral activity against HSV-1 L2/Rp-ACV/2 infected in African green monkey Vero E6 cells assessed as viral reproduction at 52 uM measured after 48 hrs post infection by gentian violet staining based plaque reduction assay (reference value: 6.05 +/- 0.1 log10PFU/ml); assay type: functional, Vero C1008
[3] = tested on: Human alphaherpesvirus 1; assay: Antiviral activity against foscarnet-resistant HSV-1 F+ infected in African green monkey Vero E6 cells assessed as viral reproduction at 207 uM measured after 48 hrs post infection by gentian violet staining based plaque reduction assay (reference value: 6.6 +/- 0.1 log10PFU/ml); assay type: functional, Vero C1008
[4] = tested on: Human alphaherpesvirus 1; assay: Antiviral activity against foscarnet-resistant HSV-1 F+ infected in African green monkey Vero E6 cells assessed as viral reproduction at 415 uM measured after 48 hrs post infection by gentian violet staining based plaque reduction assay (reference value: 6.6 +/- 0.1 log10PFU/ml); assay type: functional, Vero C1008
[5] = tested on: Human alphaherpesvirus 1; assay: Potency index, ratio of ribavirin IC50 to compound IC50 for HSV-1 L2 infected in African green monkey Vero E6 cells; assay type: functional, Vero C1008
[6] = tested on: Human alphaherpesvirus 1; assay: Antiviral activity against HSV-1 L2/Rp-ACV/2 infected in African green monkey Vero E6 cells assessed as reduction in virus-induced cytopathic effect; assay type: functional; details: Human alphaherpesvirus 1, L2/Rp-ACV/2, Vero C1008
[7] = tested on: Human alphaherpesvirus 1; assay: Antiviral activity against foscarnet-resistant HSV-1 F+ infected in African green monkey Vero E6 cells assessed as inhibition of viral reproduction measured after 48 hrs post infection by gentian violet staining based plaque reduction assay; assay type: functional; details: Vero C1008
[8] = tested on: Human alphaherpesvirus 1; assay: Antiviral activity against acyclovir and foscarnet-resistant HSV-1 L2 infected in African green monkey Vero E6 cells assessed as viral reproduction at 415 uM measured after 48 hrs post infection by gentian violet staining based plaque reduction assay (reference value: 5.92 +/- 0.11 log10PFU/ml); assay type: functional, Vero C1008
[9] = tested on: Human alphaherpesvirus 1; assay: Antiviral activity against HSV-1 L2 infected in African green monkey Vero E6 cells assessed as inhibition of viral reproduction measured after 48 hrs post infection by gentian violet staining based plaque reduction assay; assay type: functional; details: Vero C1008
[10] = tested on: Human alphaherpesvirus 1; assay: Antiviral activity against acyclovir and cidofovir-resistant HSV-1 L2 infected in African green monkey Vero E6 cells assessed as reduction in virus-induced cytopathic effect; assay type: functional; details: Human alphaherpesvirus 1, L2, Vero C1008
[11] = tested on: Human alphaherpesvirus 1; assay: Antiviral activity against acyclovir and cidofovir-resistant HSV-1 L2 infected in African green monkey Vero E6 cells assessed as viral reproduction at 52 uM measured after 48 hrs post infection by gentian violet staining based plaque reduction assay (reference value: 6.52 +/- 0.11 log10PFU/ml); assay type: functional, Vero C1008
[12] = tested on: Human alphaherpesvirus 1; assay: Antiviral activity against acyclovir-resistant HSV-1 L2 infected in African green monkey Vero E6 cells assessed as viral reproduction at 207 uM measured after 48 hrs post infection by gentian violet staining based plaque reduction assay (reference value: 5.95 +/- 0.03 log10PFU/ml); assay type: functional, Vero C1008
[13] = tested on: Human alphaherpesvirus 1; assay: Antiviral activity against acyclovir-resistant HSV-1 L2 infected in African green monkey Vero E6 cells assessed as inhibition of viral reproduction measured after 48 hrs post infection by gentian violet staining based plaque reduction assay; assay type: functional; details: Vero C1008
[14] = tested on: Human alphaherpesvirus 1; assay: Antiviral activity against HSV1 L2 infected in African green monkey Vero E6 cells assessed as reduction in virus-induced cytopathic effect; assay type: functional; details: Human alphaherpesvirus 1, L2, Vero C1008
[15] = tested on: Human alphaherpesvirus 1; assay: Antiviral activity against HSV-1 L2/Rp-ACV/2 infected in African green monkey Vero E6 cells assessed as viral reproduction at 207 uM measured after 48 hrs post infection by gentian violet staining based plaque reduction assay (reference value: 6.05 +/- 0.1 log10PFU/ml); assay type: functional, Vero C1008
[16] = tested on: Human alphaherpesvirus 1; assay: Antiviral activity against acyclovir and cidofovir-resistant HSV-1 L2 infected in African green monkey Vero E6 cells assessed as viral reproduction at 415 uM measured after 48 hrs post infection by gentian violet staining based plaque reduction assay (reference value: 6.52 +/- 0.11 log10PFU/ml); assay type: functional, Vero C1008
[17] = tested on: Human alphaherpesvirus 1; assay: Antiviral activity against foscarnet-resistant HSV-1 F+ infected in African green monkey Vero E6 cells assessed as reduction in virus-induced cytopathic effect; assay type: functional; details: Human alphaherpesvirus 1, F+, Vero C1008
[18] = tested on: Human alphaherpesvirus 1; assay: Antiviral activity against HSV-1 L2 infected in African green monkey Vero E6 cells assessed as viral reproduction at 104 uM measured after 48 hrs post infection by gentian violet staining based plaque reduction assay (reference value: 6.91 +/- 0.05 log10PFU/ml); assay type: functional, Vero C1008
[19] = Selectivity index, ratio of MCC for African green monkey Vero E6 cells to IC50 for HSV-1 L2 infected in African green monkey Vero E6 cells; set-up: species or system Vero C1008
[20] = tested on: Human alphaherpesvirus 1; assay: Antiviral activity against acyclovir-resistant HSV-1 L2 infected in African green monkey Vero E6 cells assessed as viral reproduction at 104 uM measured after 48 hrs post infection by gentian violet staining based plaque reduction assay (reference value: 5.95 +/- 0.03 log10PFU/ml); assay type: functional, Vero C1008
[21] = tested on: Human alphaherpesvirus 1; assay: Antiviral activity against acyclovir and foscarnet-resistant HSV-1 L2 infected in African green monkey Vero E6 cells assessed as inhibition of viral reproduction measured after 48 hrs post infection by gentian violet staining based plaque reduction assay; assay type: functional; details: Vero C1008
[22] = tested on: Human alphaherpesvirus 1; assay: Antiviral activity against acyclovir-resistant HSV-1 L2 infected in African green monkey Vero E6 cells assessed as viral reproduction at 415 uM measured after 48 hrs post infection by gentian violet staining based plaque reduction assay (reference value: 5.95 +/- 0.03 log10PFU/ml); assay type: functional, Vero C1008
[23] = tested on: Human alphaherpesvirus 1; assay: Antiviral activity against HSV-1 L2 infected in African green monkey Vero E6 cells assessed as viral reproduction at 415 uM measured after 48 hrs post infection by gentian violet staining based plaque reduction assay (reference value: 6.91 +/- 0.05 log10PFU/ml); assay type: functional, Vero C1008
[24] = tested on: Human alphaherpesvirus 1; assay: Antiviral activity against HSV-1 L2 infected in African green monkey Vero E6 cells assessed as viral reproduction at 52 uM measured after 48 hrs post infection by gentian violet staining based plaque reduction assay (reference value: 6.91 +/- 0.05 log10PFU/ml); assay type: functional, Vero C1008
[25] = tested on: Human alphaherpesvirus 1; assay: Potency index, ratio of maribavir IC50 to compound IC50 for HSV-1 L2 infected in African green monkey Vero E6 cells; assay type: functional, Vero C1008
[26] = tested on: Human alphaherpesvirus 1; assay: Antiviral activity against acyclovir and cidofovir-resistant HSV-1 L2 infected in African green monkey Vero E6 cells assessed as viral reproduction at 104 uM measured after 48 hrs post infection by gentian violet staining based plaque reduction assay (reference value: 6.52 +/- 0.11 log10PFU/ml); assay type: functional, Vero C1008
[27] = tested on: Human alphaherpesvirus 1; assay: Antiviral activity against foscarnet-resistant HSV-1 F+ infected in African green monkey Vero E6 cells assessed as viral reproduction at 52 uM measured after 48 hrs post infection by gentian violet staining based plaque reduction assay (reference value: 6.6 +/- 0.1 log10PFU/ml); assay type: functional, Vero C1008
[28] = tested on: Human alphaherpesvirus 1; assay: Antiviral activity against acyclovir-resistant HSV-1 L2 infected in African green monkey Vero E6 cells assessed as viral reproduction at 52 uM measured after 48 hrs post infection by gentian violet staining based plaque reduction assay (reference value: 5.95 +/- 0.03 log10PFU/ml); assay type: functional, Vero C1008

**Q.** For `Nc1nc2cc(F)c(F)cc2n1[C@@H]1O[C@H](CO)[C@@H](O)[C@H]1O`, which inhibition [1] is on record?
**A.** Dose-dependent effect

**Q.** And the Activity [2]?
**A.** 5.32 log10PFU/ml

**Q.** And the Activity [3]?
**A.** 4.87 log10PFU/ml

**Q.** And the Activity [4]?
**A.** 3.9 log10PFU/ml

**Q.** What about the “Ratio IC50” value [5] of the same compound?
**A.** 4

**Q.** And the IC50 [6]?
**A.** 104 µM

**Q.** What about the IC95 [6] of the same compound?
**A.** 830 µM

**Q.** What about the inhibition [7] of the same compound?
**A.** Dose-dependent effect

**Q.** What about the Activity [8] of the same compound?
**A.** 4.02 log10PFU/ml

**Q.** What about the inhibition [9] of the same compound?
**A.** Dose-dependent effect

**Q.** What about the IC50 [10] of the same compound?
**A.** 208 µM

**Q.** What about the IC95 [10] of the same compound?
**A.** 830 µM

**Q.** What about the Activity [11] of the same compound?
**A.** 5.71 log10PFU/ml

**Q.** What about the Activity [12] of the same compound?
**A.** 4.15 log10PFU/ml

**Q.** What about the inhibition [13] of the same compound?
**A.** Dose-dependent effect

**Q.** And the IC50 [14]?
**A.** 104 µM

**Q.** And the IC95 [14]?
**A.** 830 µM

**Q.** And the Activity [15]?
**A.** 4.55 log10PFU/ml

**Q.** What about the Activity [16] of the same compound?
**A.** 4.61 log10PFU/ml

**Q.** What about the IC50 [17] of the same compound?
**A.** 208 µM

**Q.** What about the IC95 [17] of the same compound?
**A.** 830 µM

**Q.** And the Activity [18]?
**A.** 5.63 log10PFU/ml

**Q.** What about the “Selectivity Index” value [19] of the same compound?
**A.** >32

**Q.** And the Activity [20]?
**A.** 4.44 log10PFU/ml

**Q.** What about the inhibition [21] of the same compound?
**A.** Dose-dependent effect

**Q.** And the Activity [22]?
**A.** 3.45 log10PFU/ml

**Q.** What about the Activity [23] of the same compound?
**A.** 4.38 log10PFU/ml

**Q.** And the Activity [24]?
**A.** 6.11 log10PFU/ml

**Q.** What about the “Ratio IC50” value [25] of the same compound?
**A.** 8

**Q.** What about the Activity [26] of the same compound?
**A.** 5.39 log10PFU/ml

**Q.** And the Activity [27]?
**A.** 5.9 log10PFU/ml

**Q.** And the Activity [28]?
**A.** 5.04 log10PFU/ml
